# Reference: patent US7811760B2, “Vector and method for detecting the change in transcription amount” (priority 2006, dated 2010)
# Columns and labels:
# [1] = biological target: T1, aryl hydrocarbon receptor (Rattus norvegicus, UniProt P41738, Q794H); experiment: Reporter gene assay in Neuro2a with vectors having TH transcriptional regulatory regions different in length; type: cell-based, SD-line rat; conditions: 10 nM TCDD
# T1 construct: The SD-line rat AhR gene-coding region was amplified from the reverse-transcribed sample by means of PCR; V5-His (C-terminal tag of vector pcDNA4/V5-His B); expressed in transfected cells; host or cells: mouse neuroblastoma Neuro2a, transient transfection with LIPOFECTAMINE 2000
# T1 sequence (P41738 10-853 Q794H): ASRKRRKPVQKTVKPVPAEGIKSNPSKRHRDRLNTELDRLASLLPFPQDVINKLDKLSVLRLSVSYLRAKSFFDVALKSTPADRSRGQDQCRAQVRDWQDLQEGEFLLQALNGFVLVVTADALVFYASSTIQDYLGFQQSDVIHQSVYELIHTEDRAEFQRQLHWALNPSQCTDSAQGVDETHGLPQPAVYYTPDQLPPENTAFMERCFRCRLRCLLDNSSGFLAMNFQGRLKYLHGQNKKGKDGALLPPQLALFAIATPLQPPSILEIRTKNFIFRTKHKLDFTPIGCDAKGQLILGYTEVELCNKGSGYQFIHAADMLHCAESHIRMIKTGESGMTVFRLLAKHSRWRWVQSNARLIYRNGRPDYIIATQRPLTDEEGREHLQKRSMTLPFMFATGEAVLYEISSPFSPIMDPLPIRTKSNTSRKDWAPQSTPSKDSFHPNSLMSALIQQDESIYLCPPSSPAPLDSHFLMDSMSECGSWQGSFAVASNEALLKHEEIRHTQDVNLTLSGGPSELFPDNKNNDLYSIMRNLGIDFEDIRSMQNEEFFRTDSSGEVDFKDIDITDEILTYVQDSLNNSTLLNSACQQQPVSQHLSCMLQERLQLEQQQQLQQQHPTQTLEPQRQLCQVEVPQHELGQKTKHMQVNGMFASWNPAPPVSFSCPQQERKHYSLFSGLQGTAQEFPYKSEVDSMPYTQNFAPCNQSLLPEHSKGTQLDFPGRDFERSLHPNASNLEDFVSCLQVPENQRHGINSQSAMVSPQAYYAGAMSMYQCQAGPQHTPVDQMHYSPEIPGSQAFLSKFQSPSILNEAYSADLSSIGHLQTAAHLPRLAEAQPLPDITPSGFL
# Description: Shorter fragments of TH transcriptional regulatory region (i.e., 2.0 kbp, 1.5 kbp, 1.0 kbp and 500 bp of fragments) were prepared by PCR using the 2.5 kbp of the TH transcriptional regulatory region incorporated into PGV-THp25 as a template. The following different forward primers were used for each fragment: 2.0-kbp fragment:
# As the reverse primer, a common primer (5′-[…]-3′ (SEQ ID No: 17)) was used. Recognition sequence for a restriction enzyme KpnI was added to the terminal of each forward primer, and recognition sequence for a restriction enzyme NheI was added to the terminal of the reverse primer, in order to facilitate incorporation of the PCR amplification fragments into the vector. Pyrobest DNA polymerase (Takara Bio Inc.) was used in the PCR. The amplified TH transcriptional regulatory region fragments were digested with restriction enzymes KpnI and NheI, and subjected to electrophoresis on agarose. The corresponding bands were purified with a QIAQUICK Gel Extraction Kit (manufactured by Qiagen) and incorporated into PGV-B2 vector (TOYO B-NET) previously digested with KpnI and NheI.
# These vectors were introduced into Neuro2a by a method similar to Example 3. The obtained cell was exposed to 10 nM TCDD, and the change in the expression amount of the reporter gene was examined in the cell (FIG. 3).
# For narrowing down the region involved in transcriptional regulation by the test substance, shorter fragments of the transcriptional regulatory region (i.e., 400 bp, 300 bp, 200 bp and 100 bp of fragments) were prepared by PCR using the 500 bp of the TH transcriptional regulatory region as a template. The following forward primers were used for each fragment.
# As the reverse primer, a common primer (5′-[…]-3′ (SEQ ID No: 17)) was used. Recognition sequence for a restriction enzyme KpnI was added to the terminal of each forward primer, and recognition sequence for a restriction enzyme NheI was added to the terminal of the reverse primer. The DNA fragments were amplified by using Pyrobest DNA polymerase (Takara Bio Inc.). […]
# SD-line rat AhR = biological target: T2, SD-line rat AhR (Rattus norvegicus, UniProt P41738, Q794H); experiment: Reporter gene assay in Neuro2a with pTHE100×3/Luc and pcDNA4-rAhR; type: cell-based; conditions: 1 to 10,000 pM TCDD
# T2 construct: The SD-line rat AhR gene-coding region was amplified from the reverse-transcribed sample by means of PCR; V5-His (C-terminal tag of vector pcDNA4/V5-His B); expressed in transfected cells; host or cells: mouse neuroblastoma Neuro2a, transient transfection with LIPOFECTAMINE 2000
# T2 sequence (P41738 10-853 Q794H): T1 sequence (P41738 10-853 Q794H)
# Excerpt: In Example 8, the vector pTHE100×3/Luc (Example 7, FIG. 7A) was used as the vector containing a reporter gene, and Neuro2a was used as the cell.
# In this Example, a combination of pcDNA4-rAhR (Example 1) containing the SD-line rat AhR gene and pcDNA4/V5-His/lacZ (Invitrogen), as well as a combination of PGV-mAhR (Example 1) containing the C57/BL6-line mouse AhR gene and pcDNA4/V5-His/lacZ were used as the vectors for introducing into the cell together with pTHE100×3/Luc. pcDNA4-rAhR was introduced into the cell for constitutive expression of the SD-line rat AhR (SEQ ID No: 10); PGV-mAhR was introduced into the cell for constitutive expression of C57/BL6-line mouse AhR (SEQ ID No: 11); and pcDNA4/V5-His/lacZ was introduced into the cell for normalization of the transfection efficiency of the vector.
# The vectors were introduced into the cell by using LIPOFECTAMINE 2000, similarly to the method described in Example 3. After the above vectors were introduced into the cell, the obtained cell was exposed to 1 to 10,000 pM of TCDD to examine the increase in expression amount of the reporter gene in response to TCDD.
smiles,measurement,setting,value
"Clc1cc2c(cc1Cl)Oc1cc(Cl)c(Cl)cc1O2 [TCDD, 2,3,7,8-tetrachlorodibenzo-p-dioxine]",change in the expression amount of the reporter gene (response),[1]; all vectors with TH transcriptional regulatory regions of 2.5 kbp to 500 bp,there was a response to TCDD
same,change in the expression amount of the reporter gene (response),"[1]; vectors with TH transcriptional regulatory region of 500 bp, 400 bp or 300 bp",there was a response to TCDD
same,change in the expression amount of the reporter gene (response),[1]; vectors with region of 200 bp or 100 bp,no response to TCDD
same,"transcriptional response, rat AhR compared with mouse AhR",SD-line rat AhR,transcriptional response greater than that of the C57/BL6-line mouse AhR
same,induction of transcription of the reporter gene in response to TCDD,SD-line rat AhR; SD-line rat AhR,effective in inducing transcription of the reporter gene
